2 compounds from patent US10508111B2, “6-[5-amino-6-(2-ethoxyethoxy)-imidazo[4,5-B]pyridin-3-yl]-nicotinonitrile derivatives and their use as IRAK inhibitors” (GALAPAGOS NV, priority 2015, dated 2019) can be followed below.

In experiment [1] the test system is TNFα triggered IL-6 release in SW1353 cells. In words: SW1353 cellular selectivity assay, TNFα trigger, IL-6 ELISA readout. Format: cell-based, human. Conditions: TNFα trigger 10 ng/mL; for IC50: Homo sapiens; for TNFα trigger IL-6 PIN at 20 μM: percent inhibition at 20 μM compound. An excerpt:
The aim of this assay is to evaluate the selectivity of compounds of the invention for the activated TLR/IRAK-4 pathway in an in vitro human cellular assay setting. SW1353 cells are from a chondrocytic cell line and are responsive to both the interleukin 1 (IL-1) and the TNFα cytokine triggers. Both cytokine triggers induce the expression of interleukin 6 (IL-6) and MMP13 by these cells. IL-6 and MMP13 releases are used as readouts in this assay and represent a measure for the level of inhibition of the TLR/IRAK-4 pathway by the tested compound.
SW1353 cells are cultured in DMEM supplemented with 10% FBS and 1% Penicillin/Streptomycin. Cells are incubated at 37° C. in a humidified atmosphere of 5% CO2 and subcultured twice a week. During subculturing, trypsin-EDTA is used to detach the cells, followed by a neutralization step with cell culture medium. After centrifugation (1,000 rpm during 5 min), the pellet is resuspended in cell culture medium and cells are counted using an automated cell counter (Invitrogen Countess™).
Cells are used at passage 16 and plated at a density of 15,000 cells per well in 120 μL cell culture medium in 96-well culture plates. Cells are allowed to attach during overnight incubation.
SW1353 cells are pre-incubated with test compound by addition of 15 μL of 10× concentrated compound solution for 2 h at 37° C. and 5% CO2. The compounds are tested at different concentrations and prepared by 3-fold serial dilutions from the 10 mM stock solution in DMSO followed by a 1/50 dilution step in cell culture medium. Final test concentrations in the assay start from 20 μM, with subsequent 3-fold serial dilutions with equal final DMSO concentrations of 0.2%. After the compound pre-incubation step, the SW1353 cells are triggered by addition of 15 μL of 10× concentrated IL-1f (Peprotech, 200-01B) or TNFα trigger (Peprotech, 300-01A) to the wells with final assay volume of 150 μL per well and final trigger concentration of 1 ng/mL and 10 ng/mL, respectively. Negative controls are adjusted with equal DMSO concentrations without trigger. The assay plates are then incubated in a humidified incubator at 37° C. and 5% CO2. Cell supernatants are harvested 24 h and 48 h later by transferring the cell medium into a V-bottom polypropylene 96-well plate and stored at −80° C. until ELISA readout.
The levels of secreted IL-6 in the cell supernatants are quantified in an enzyme-linked immunosorbent assay (ELISA). […] Luminescence of the converted substrate is measured with a Luminoskan™ Ascent luminometer.
All controls are measured within the linear range of the human IL-6 and MMP13 standard curve of the ELISA. […]
(An ELISA detects its analyte on a solid surface through an enzyme-linked reagent.)

The target of experiment [2] is T1, CDK2 (Homo sapiens, UniProt P24941).
T1 construct: purchased Carna Biosciences 04-103
In words: Kinase selectivity profiling (focused panel), radioactive filter plate assay: CDK2. Format: biochemical. The following applies: Histone H1-derived peptide, 0.1 μM ATP, 60 min. The protocol: The purpose of this assay is to determine the activity and selectivity of a compound of the invention on a selected range of human kinases which may result in undesirable side-effects when inhibited (Dy & Adjei 2013; Force & Kolaja 2011).
The IC50 value for off-target kinases is determined in radioactive filter plate assays. The principle of the assays consists in the measurement of incorporated ^33P into a peptide substrate upon phosphorylation by the kinase enzyme using [γ-^33P]ATP and ATP. Unincorporated ^33P is removed by loading the samples on a filter plate (using a harvester, PerkinElmer) and 6 subsequent washing steps. Incorporated ^33P in the peptide substrate is measured by a scintillation counter (Topcount, PerkinElmer) after addition of MicroScint™-20 (PerkinElmer, 6013621) to the filter plates.
5 μL of a water dilution series of test compound (starting from 20 μM or 6.6 μM highest concentration), from a 100% DMSO stock solution, 1/5 dilution, is added to the wells (final DMSO concentration of 1% in reaction assay). Enzyme and peptide substrate are used at optimized concentrations (cf. Table VI). The enzyme and substrate are diluted in assay buffer to a total volume of 11 μL. The reaction is started by addition of 9 μL of ATP+[γ-^33P]ATP, diluted in the same buffer as enzyme and substrate. The mixture is incubated at 30° C. The reaction is terminated by adding 25 μL of 150 mM phosphoric acid. Samples are transferred to filter plates and incorporated radioactivity is measured using a scintillation counter.
The incubation time, assay buffer composition, and concentrations of ATP, enzyme and substrate are reported in Table VI for example kinase off-target assays.
10 μM staurosporine (1% DMSO) is used as positive control (100% inhibition); vehicle (water+1% DMSO) as negative control (0% inhibition).

For `N#Cc1ccc(-n2cnc3cc(OCCOCCO)c(NC4CCOCC4)nc32)nc1` [Compound 1, 6-[6-[2-(2-hydroxy-ethoxy)-ethoxy]-5-(tetrahydro-pyran-4-ylamino)-imidazo[4,5-b]pyridin-3-yl]-nicotinonitrile], the IC50 (in general, the concentration that inhibits the measured activity by half) in experiment [1] is above 20 µM; in experiment [2] it was above 6.67 µM. Besides, the “TNFα trigger IL-6 PIN at 20 μM” value in experiment [1] was “[54%]”.
Taken in the same sequence, the figures for `C[C@]1(O)CC[C@@H](Nc2nc3c(cc2OCCOCCO)ncn3-c2ccc(C#N)cn2)CC1` [Compound 12, 6-[6-[2-(2-hydroxyethoxy)ethoxy]-5-[((cis-1,4)-4-hydroxy-4-methylcyclohexyl)amino]imidazo[4,5-b]pyridin-3-yl]pyridine-3-carbonitrile] were above 20 µM, 0.944 µM and “[22%]”.
